Measurements: patent US20230233425A1, “USE OF VOLATILE COMPOSITIONS TO LIMIT OR ELIMINATE THE PERCEPTION OF MALODOR” (Firmenich SA, priority 2017, published 2023)

Experiments:
[1] = tested on: 1-octen-3-ol receptors OR2W1, Olfr93, Olfr120, Olfr398; assay: Antagonists of 1-octen-3-ol receptors (Example 11); type: cell-based, mouse and human; parameters: Inhibition(%): concentration or dose not given beside the values; settings: Table 19
[2] = tested on: geonol earthy/moss odor perception; assay: Human sensory performance of test compounds with and without geonol; type: in vivo; settings: for % Earthy/Moss Odor: Test Compound Only
From the text: Sensory Evaluation: Five 16 oz glass jars containing either REF (geonol only), geonol only control, antagonist only, mixture of geonol and isointense antagonist, or mixture of geonol and low intensity antagonist were presented to the panelists (last four samples were randomized across panelists). The panelists were asked to familiarize themselves with the earthy/moss odor quality from the REF jar first, then rate the pleasantness, earthy/moss odor intensity and overall odor intensity of the next four samples on a 0-10 linear scale. The inter-stimulus interval between the samples was two minutes to avoid adaptation. […]
The results are shown in Tables 16 and 17, and FIGS. 3 to 5.

[3] = tested on: geonol receptors Olfr339, Olfr1487, Olfr1A1, OR11A1, Olfr96; assay: Antagonists of geonol receptors (Example 11); type: cell-based, mouse and human; parameters: Inhibition(%): concentration or dose not given beside the values; settings: Table 18
[4] = target: T1, OR51E1 olfactory receptor (Homo sapiens, UniProt Q8TCB6); assay: Butyric acid olfactory receptor antagonist cell-based dose-response vs butyric acid EC80; settings: butyric acid at EC80; Table 5
T1 construct: expressed in transfected cells
T1 sequence (Q8TCB6 1-318): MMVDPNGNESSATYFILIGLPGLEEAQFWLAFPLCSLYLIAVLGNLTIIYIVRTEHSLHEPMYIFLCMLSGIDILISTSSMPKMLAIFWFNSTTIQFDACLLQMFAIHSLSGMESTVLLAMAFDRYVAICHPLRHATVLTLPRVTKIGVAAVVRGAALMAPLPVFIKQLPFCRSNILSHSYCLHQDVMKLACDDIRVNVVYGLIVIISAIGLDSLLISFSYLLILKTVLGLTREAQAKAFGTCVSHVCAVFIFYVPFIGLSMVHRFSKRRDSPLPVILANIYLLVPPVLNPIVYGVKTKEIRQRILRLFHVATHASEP

[5] = tested on: OR2W1 or the OR1A1 olfactory receptor; assay: 1-octen-3-ol olfactory receptor antagonist cell-based dose-response vs 1-octen-3-ol EC80; settings: for IC50: 1-octen-3-ol at EC80; for % Inhibition: maximum inhibition normalized to baseline agonist activity
From the text: Each cell line was screened with a volatile compound library for their inhibitory properties and potential 1-octen-3-ol smell inhibition.
Single concentration monitoring of the 1-octen-3-ol induced cell activity in the presence or absence of a test compound allowed for the identification of compounds with a putative suppression or inhibitory effect.

[6] = Low Dilution Test Compound + Geonol (0.1%)
[7] = Medium Dilution Test Compound + Geonol (0.1%)

Row | IC50 [1] [µM] | IC50 [3] [µM] | Compound | Inhibition(%) [1] [%] | Inhibition(%) [3] [%] | other results
1 | 477 | – | CC=CC(=O)C1=C(C)CCCC1(C)C [1-(2,6,6-trimethylcyclohexen-1-yl)but-2-en-1-one] | 72 | – | –
2 | – | – | C[C@@H]1CC[C@]2(O)C(C)(C)[C@H]3CC[C@@]2(C)[C@@H]1C3 | – | – | % Earthy/Moss Odor Remaining [2, 6]: 104.60%; % Earthy/Moss Odor Remaining [2, 7]: 129.80%; % Earthy/Moss Odor [2]: 94.10%
3 | 54.6 | 36.6 | C=C(C[C@H](C)CO)[C@H]1CC=C(C)C1(C)C | 27 | 33 | –
4 | – | – | C=C1CC[C@H]2O[C@]2(C)CC[C@@H]2[C@@H]1CC2(C)C | – | – | IC50 [4]: 97 µM; IC50 [5]: 25.1 µM; % Inhibition [5]: 123.63%
5 | – | 295 | 3-acetyloxynonyl acetate; (3-pentyloxan-4-yl) acetate | – | 20 | % Earthy/Moss Odor Remaining [2, 6]: 81.10%; % Earthy/Moss Odor Remaining [2, 7]: 62.50%; % Earthy/Moss Odor [2]: 26.20%
6 | – | – | O=C1CCCCCCC/C=C/CCCCCCC1 [(9<I>E</I>)-cycloheptadec-9-en-1-one] | – | – | IC50 [5]: 210 µM; % Inhibition [5]: 97.22%
7 | 153 | 41 | c1ccc(CCCc2ccccn2)cc1 [2-(3-phenylpropyl)pyridine] | 31 | 196 | –
8 | – | 164 | CC(=O)O[C@H]1CCCC[C@@H]1C(C)(C)C | – | 56 | % Earthy/Moss Odor [2]: 15.30%
9 | – | – | CCC(=CC[C@@H]1CC=C(C)C1(C)C)CO | – | – | % Earthy/Moss Odor Remaining [2, 6]: 85.20%; % Earthy/Moss Odor Remaining [2, 7]: 64.30%; % Earthy/Moss Odor [2]: 34.90%
10 | – | – | CC1(C)C2C[C@H]3CCC(=O)C=C3[C@@H]1C2 (single isomer, unassigned; (+)) | – | – | IC50 [5]: 194 µM; % Inhibition [5]: 128.51%
11 | 23.4 | – | C[C@@H]1CC=CCCCCCCCCCC(=O)C1 [(3~{R})-3-methylcyclopentadec-5-en-1-one] | 79 | – | IC50 [4]: 53.7 µM
12 | 117 | – | CC(C)(C)Cc1cccnc1 [3-(2,2-dimethylpropyl)pyridine] | 25 | – | –
13 | – | – | O=C1CCCCCCCCCCCCCCO1 [OXACYCLOHEXADECAN-2-ONE] | – | – | IC50 [5]: 32.1 µM; % Inhibition [5]: 111.31%
14 | – | – | CC1C(=O)c2ccccc2C1(C)C (centres unmarked) [2,3,3-trimethyl-2H-inden-1-one] | – | – | IC50 [5]: 75.6 µM; % Inhibition [5]: 128.39%
15 | 85.6 | – | CC1CCC2C(C)(C)C3CC12CC1OC13C (centres unmarked) | 91 | – | –
16 | 190 | – | CC(C)=CCCC(C)=CCO [3,7-dimethylocta-2,6-dien-1-ol] | 18 | – | –
17 | 65.2 | 894 | CC1COCc2cc3c(cc21)C(C)(C)C(C)C3(C)C (centres unmarked) | 84 | 56 | –
18 | – | – | O=C1CCCCCCCCCCC1 [Clyclododecanone, cyclododecanone] | – | – | IC50 [5]: 8.79 µM; % Inhibition [5]: 118.47%
19 | 81 | 34.9 | CC1CCC2(O)C(C)(C)C3CCC2(C)C1C3 (centres unmarked) | 70 | 68 | –
20 | – | – | CC(CCO)CCc1ccccc1 (centres unmarked) [Compound 3-methyl-5-phenylpentan-1-ol, 3-methyl-5-phenylpentan-1-ol] | – | – | % Earthy/Moss Odor [2]: 11.30%
21 | 12.5 | 42.4 | CC1C2CC(CC13C=CC(=O)CC3)C2(C)C (centres unmarked) | 87 | 27 | –
22 | – | 173 | CCC(=CCC1CC=C(C)C1(C)C)CO (centres unmarked) [2-ethyl-4-(2,2,3-trimethylcyclopent-3-en-1-yl)but-2-en-1-ol] | – | 35 | –
23 | 53.6 | – | CCC(O)COC1CCCCC1C(C)(C)C (centres unmarked) | 13 | – | –
24 | – | – | OCCc1ccccc1 [phenylethylol, 2-PHENYLETHANOL] | – | – | % Earthy/Moss Odor [2]: 47.50%

Row | IC50 [1] [µM] | IC50 [3] [µM] | Compound | Inhibition(%) [1] [%] | Inhibition(%) [3] [%] | other results
25 | 149 | 118 | CC(=O)CCC1=C(C)CCCC1(C)C [4-(2,6,6-trimethylcyclohexen-1-yl)butan-2-one] | 40 | 36 | % Earthy/Moss Odor [2]: 30.30%
26 | 39.3 | 31.7 | O=C1CCCCCCCCCCCC(=O)OCCO1 [1,4-dioxacycloheptadecane-5,17-dione] | 38 | 21 | –
27 | – | 76 | CC1=CCC(C=CC(C)C(C)O)C1(C)C (centres unmarked) | – | 33 | –
28 | – | 267 | CC(=O)O[C@@H]1C(C)(C)CCC[C@@]12CC=C(C)C[C@@H]2C | – | 38 | IC50 [4]: 37.7 µM
29 | 83.7 | – | Cc1cc2c(cc1C=O)C(C)(C)[C@H](C)[C@@H](C)C2(C)C | 64 | – | –
30 | 175 | 201 | CC(CCCC(C)(C)O)CC(O)n1ccc2ccccc21 (centres unmarked) [1-indol-1-yl-3,7-dimethyloctane-1,7-diol] | 46 | 46 | –
31 | 93.8 | – | CC(=O)OC1CCC(C(C)(C)C)CC1 (centres unmarked) [(4-{tert}-butylcyclohexyl) acetate] | 79 | – | –
32 | 57.1 | – | C=CC(C)(CCC=C(C)C)OC(=O)C(C)C (centres unmarked) [3,7-dimethylocta-1,6-dien-3-yl 2-methylpropanoate] | 88 | – | –
33 | 72.7 | – | CC(=O)C=CC1=C(C)CCC(C)C1(C)C (centres unmarked) [4-(2,5,6,6-tetramethylcyclohexen-1-yl)but-3-en-2-one] | 23 | – | –
34 | – | 44.6 | CCC(=CCC1CC=C(C)C1(C)C)CO (centres unmarked) [2-ethyl-4-[1~{S})-2,2,3-trimethylcyclopent-3-en-1-yl]but-2-e] | – | 19 | –
35 | 120 | 110 | CC(=O)C(C)=CC1C(C)=CCCC1(C)C (centres unmarked) [3-methyl-4-(2,6,6-trimethylcyclohex-2-en-1-yl)but-3-en-2-one] | 37 | 58 | –
36 | – | – | O=C1CCC=CCCCCCCCCCC1 [Cyclopentadec-4-en-1-one] | – | – | IC50 [5]: 156 µM; % Inhibition [5]: 90.98%
37 | – | – | CC1=C[C@@H](C)[C@@H](C=O)CC1 | – | – | % Earthy/Moss Odor Remaining [2, 6]: 80.60%; % Earthy/Moss Odor Remaining [2, 7]: 71.50%; % Earthy/Moss Odor [2]: 48.10%
38 | – | 213 | COC(=O)c1ccccc1NC=CC(C)CCCC(C)(C)O (centres unmarked) [methyl 2-[(7-hydroxy-3,7-dimethyloct-1-enyl)amino]benzoate] | – | 103 | –
39 | 101 | 27.1 | CC1(C)CCCC2(C)C1CCC1(C)OCCC12 (centres unmarked) | 105 | 78 | –
40 | – | 1120 | CC(=O)/C(C)=C/C1C(C)=CCCC1(C)C (centres unmarked) | – | 58 | –
41 | 72.6 | – | CC(=O)OC1(C)CCC23CC1C(C)(C)C2CCC3C (centres unmarked) | 52 | – | –
42 | – | 517 | CC(C)CC(O)Cc1ccccc1 (centres unmarked) [4-methyl-1-phenylpentan-2-ol] | – | 36 | –
43 | – | 386 | CC(=O)OC(C)(C)Cc1ccccc1 [(2-methyl-1-phenylpropan-2-yl) acetate] | – | 54 | % Earthy/Moss Odor [2]: 34.00%
44 | 35.9 | 49.1 | 1-(2,6,6-trimethylcyclohexen-1-yl)hepta-1,6-dien-3-one; 1-(2,6,6-trimethylcyclohex-2-en-1-yl)hepta-1,6-dien-3-one | 49 | 66 | IC50 [4]: 100 µM
45 | – | – | CCCCCO [Pentanol, 1-, pentanol] | – | – | IC50 [5]: 28.3 µM; % Inhibition [5]: 94.31%
46 | – | 173 | CC1CCC2(O1)C(C)(C)CCCC2(C)O (centres unmarked) | – | 40 | –
47 | – | 129 | CC=CC(=O)C1=C(C)C=CCC1(C)C [1-(2,6,6-trimethylcyclohexa-1,3-dien-1-yl)but-2-en-1-one] | – | 35 | –

Row | Compound | IC50 [1] [µM] | IC50 [3] [µM] | Inhibition(%) [1] [%] | Inhibition(%) [3] [%] | other results
48 | CC(=O)c1c(C)c([N+](=O)[O-])c(C(C)(C)C)c([N+](=O)[O-])c1C | 84.7 | – | 98 | – | –
49 | CC(=O)/C=C/C1C(C)=CCCC1(C)C (racemic) [(+−)-(3E)-4-(2,6,6-trimethyl-2-cyclohexen-1-yl)-3-buten-2-one] | 462 | – | 79 | – | –
50 | CC(C)CCOCCc1ccccc1 [2-(3-methylbutoxy)ethylbenzene] | – | 126 | – | 22 | –
51 | 1-(2,2-dimethyl-6-methylidenecyclohexyl)pent-1-en-3-one; 3-methyl-4-(2,6,6-trimethylcyclohex-2-en-1-yl)but-3-en-2-one; 1-(2,6,6-trimethylcyclohexen-1-yl)pent-1-en-3-one; 1-(2,6,6-trimethylcyclohex-2-en-1-yl)pent-1-en-3-one | 66.8 | 136 | 56 | 49 | –
